This is an account of results in patent publication US20120059020A1, “PROPHYLACTIC OR THERAPEUTIC AGENT FOR PULMONARY FIBROSIS” (SHIZUOKA COFFEIN CO., LTD, priority 2009, published 2012).

One series is described as follows: Solubility test in water. It counts as physicochemical. On the procedure:
Solubility test on a 2Na salt of a typical compound (1) (disodium salt of [5-[[6-[4-phenyl-6-(phenylmethoxy)-2-pyrimidinyl]-2-naphthalenyl]oxy]pentyl]propanedioic acid) used in the present invention in water is shown below.
Water of 20±2° C. was added to the 2Na salt of the compound (1), and the mixture was vigorously shaken for 30 seconds and left standing for 5 minutes. This operation was repeated until the 2Na salt of the compound (1) was completely dissolved. The final amount of water required for the dissolution was determined. The solubility of the 2Na salt of the compound (1) in water of 45±5° C. was determined by similar operation.

A short description of series [1]: Stability test in aqueous solution (HPLC assay). It counts as physicochemical. To be noted: for Purity: aqueous solution 1 g/100 mL, 35° C. On the procedure: Stability test on the 2Na salt of the compound (1) used in the present invention in an aqueous solution is shown below.
Injectable distilled water was added to 1 g of the 2Na salt of the compound (1) to prepare 100 mL of a sample solution. The sample solution was equally divided. One portion was shielded against light, and the other portion was unshielded. Each of them was stored at 35° C. for 11 days during which these sample solutions were assayed over time using high-performance liquid chromatography and examined for stability.
YMC-Pack ODS-A A-302 (YMC Co., Ltd.) was used as a column, and the column temperature was kept at a constant temperature around 40° C. A tetrahydrofuran/0.1% phosphoric acid (54:46) mixed solution was used as a mobile phase. A flow rate was adjusted such that the retention time of the compound (1) was approximately 7 minutes. An ultraviolet absorptiometer (measurement wavelength: 265 nm) was used as a detector.

The subject of series [2] is mouse models with bleomycin-induced pulmonary fibrosis. The experiment in a line: In vivo effect on pulmonary fibrosis induced by bleomycin. The arrangement: species or system C57BL/6 mice. The source says:
The present inventors conducted a test using mouse models with pulmonary fibrosis induced by transtracheally administering bleomycin, for the purpose of studying the antifibrotic action of the propanedioic acid derivative of the present invention in vivo. This experimental model of pulmonary fibrosis is clinically similar to idiopathic pulmonary fibrosis in pathological observations such as increased inflammatory cells and the increased amount of hydroxyproline in an extracellular matrix-constituting collagen ingredient used as an index for fibrosis, and is widely used.
C57BL/6 mice (female, 12 week old, body weight: 20 to 23 g) were anesthetized by the intraperitoneal administration of pentobarbital. The trachea was incised, and bleomycin (NIPPON KAYAKU CO., LTD.) (1.5 mg/kg) dissolved in saline was transtracheally administered thereto. […]
20 days after bleomycin administration, a bronchoalveolar lavage fluid (BALF) was collected from each mouse, and a PAI-1 concentration (ng/mL) in the fluid was measured using an ELISA kit (Mouse PAI-1 ELISA kit, Innovative research Inc.). Subsequently, the amount of hydroxyproline was measured for pulmonary fibrosis evaluation. The amount of hydroxyproline in the lung tissue was measured as the amount in a lung tissue hydrolysate according to the method of Kivirikko et al. (Anal. Biochem. 19, 249-255 (1967)). […]

The structures appear in SMILES notation.

Turning to `O=C([O-])C(CCCCCOc1ccc2cc(-c3nc(OCc4ccccc4)cc(-c4ccccc4)n3)ccc2c1)C(=O)[O-].[Na+].[Na+]` [2Na salt of compound (1), disodium salt of [5-[[6-[4-phenyl-6-(phenylmethoxy)-2-pyrimidinyl]-2-naphthalenyl]oxy]pentyl]propanedioic acid], the “Amount of solvent required for dissolving 1 g” value in “Solubility test in water” (Water (20 ± 2° C.)) is reported as 33 mL; in “Solubility test in water” (Water (45 ± 5° C.)), 1.2 mL. Also, in the series “Solubility test in water” (water), the “Solubility in water” value was “excellent in solubility in water”. For the same compound, the “Stability of aqueous solution” value in series [1] (35° C. for 11 days, light-shielded or unshielded) is given as “stable”. The Purity turned out to be 99.8% in series [1] (light-shielded, 0 days elapsed); 99.8% in series [1] (light-shielded, 1 day elapsed); 99.8% in series [1] (light-shielded, 6 days elapsed); 99.8% in series [1] (light-shielded, 11 days elapsed); 99.8% in series [1] (unshielded, 0 days elapsed); 99.8% in series [1] (unshielded, 1 day elapsed). The Purity in series [1] (unshielded, 6 days elapsed) amounted to 99.7%; in series [1] (unshielded, 11 days elapsed), 99.7%. The “Fibrotic process of the lung induced by bleomycin” value in series [2] (1000 ppm in drinking water, free feeding, mice, listed as 2Na salt of the compound (1)) is reported as “remarkable effectiveness that suppressed the fibrotic process of the lung”. Moreover, in series [2] (group 2 (late stage): 1000 ppm in drinking water from 8 to 20 days after bleomycin (fibrotic stage), approx. 20 mg/kg/day, measured 20 days after bleomycin), the “Amount of hydroxyproline in lung tissue compared with the control group” value is on record as “significantly decreased”.
